“Also recorded” adds a separate entry of the source.
Legend:
Oprm1^−/− mice [1] = assay: Y-maze exploration; assay type: in vivo, mouse; details: chronic NaBr 10-500 mg/kg or bumetanide 0.5 and 2 mg/kg
Protocol: (§1) Mice were treated with vehicle (NaCl 0.9%; ip, 10 or 20 ml/kg), NaBr (Sigma-Aldrich, Saint-Quentin Fallavier, France) administered either chronically (once a day, 10, 30, 70, 125, 250 and 500 mg/kg; i.p. or per os, in a volume of 20 ml/kg—except for combination with VU0155041: […]) or acutely (250 mg/kg, 20 ml/kg), KBr (Sigma-Aldrich, Saint-Quentin Fallavier, France; 145 mg/kg; i.p., 20 ml/kg), bumetanide (R&D systems, Minneapolis, USA, 0.5 and 2 mg/kg; i.p., 20 ml/kg) or VU0155041 (Cayman Chemicals, Ann Arbor, USA, once a day, i.p., 1 mg/kg, 10 ml/kg). […] When treatment was given chronically, behavioral testing started 8 days after beginning of daily administration. Treatment was maintained for 8 to 18 consecutive days (see timelines in FIGS. 1 and 4), allowing thorough behavioral phenotyping. On testing days, or when treatment was given acutely, drugs (or vehicle) were administered 30 min before behavioral assays.
Y-maze exploration. Spontaneous alternation behavior was used to assess perseverative behavior (65-67). Each Y-maze consisted of three connected Plexiglas arms (15×15×17 cm) covered with distinct wall patterns (15 lx). Floors were covered with lightly sprayed fresh sawdust to limit anxiety. Each mouse was placed at the center of a maze and allowed to freely explore this environment for 5 min. The pattern of entries into each arm was quoted on video-recordings. Spontaneous alternations (SPA), i.e. successive entries into each arm forming overlapping triplet sets, alternate arm returns (AAR) and same arm returns (SAR) were scored, and the percentage of SPA, AAR and SAR was calculated as following: total/(total arm entries−2)*100.

Oprm1^−/− mice [2] = assay: Behavioral tests of social, repetitive and anxious behavior (oral NaBr, KBr; data not shown); details: mouse, in vivo, po, 250 mg/kg
Protocol: as §1
Also, we assessed the behavioral effects of chronic administration of another bromide salt, KBr.

Oprm1^−/− mice [3] = assay: Motor stereotypies; assay type: in vivo, mouse
Protocol: as §1
Motor stereotypies. To detect motor stereotypies in mutant versus wild-type animals, mice were individually placed in clear standard home cages (21×11×17 cm) filled with 3-cm deep fresh sawdust for 10 min (64). Light intensity was set at 30 lux. Trained experimenters scored numbers of head shakes, as well as rearing, burying, grooming, circling episodes and total time spent burying by direct observation.

Fmr1^−/− mice [4] = assay: Y-maze exploration; assay type: in vivo, mouse; details: chronic NaBr 250 mg/kg once daily
Protocol: as §1
(§2) Y-maze exploration. Spontaneous alternation behavior was used to assess perseverative behavior (65-67). Each Y-maze consisted of three connected Plexiglas arms (15×15×17 cm) covered with distinct wall patterns (15 lx). Floors were covered with lightly sprayed fresh sawdust to limit anxiety.
(§3) To this purpose, we evaluated the effects of chronic NaBr administration at the dose of 250 mg/kg on autism-sensitive behaviors in these lines (FIG. 3A).

Shank3^Δex13-16−/− mice [5] = assay: Y-maze exploration; assay type: in vivo, mouse; details: Shank3Δex13-16−/− mice; chronic NaBr 250 mg/kg once daily
Protocol: as §1, §2, §3

Fmr1^−/− mice [6] = assay: Three-chamber social preference test; assay type: in vivo, mouse; details: chronic NaBr 250 mg/kg once daily
Protocol: as §1
(§4) Three-chamber social preference test. The test apparatus consisted of a transparent acrylic box (exterior walls blinded with black plastic film); partitions divided the box into three equal chambers (40×20×22.5 cm). Two sliding doors (8×5 cm) allowed transitions between chambers. Cylindrical wire cages (18×9 cm, 0.5 cm diameter-rods spaced 1 cm apart) were used to contain the mouse interactor and object (soft-toy mouse). The test was performed in low-light conditions (15 lx) to minor anxiety. Stimulus wild-type mice were habituated to confinement in wire cages for 2 days before the test (20 min/day). On testing day, the experimental animal was introduced to the middle chamber and allowed to explore the whole apparatus for a 10-min habituation phase (wire cages empty) after the sliding doors were raised. The experimental mouse was then confined back in the middle-chamber while the experimenter introduced an unfamiliar wild type age and sex-matched animal into a wire cage in one of the side-chambers and a soft toy mouse (8×10 cm) in the second wire cage as a control for novelty. Then the experimental mouse was allowed to explore the apparatus for a 10-min interaction phase. The time spent in each chamber, the time spent in nose contact with each wire cage (empty: habituation; containing a mouse or a toy: interaction), as well as the number of these nose contacts were scored a posteriori on video recordings using an ethological keyboard (Labwatcher®, View Point, Lyon, France) by trained experimenters. […] The relative position of stimulus mice (versus toy) was counterbalanced between groups.
as §3

Shank3^Δex13-16−/− mice [7] = assay: Three-chamber social preference test; assay type: in vivo, mouse; details: Shank3Δex13-16−/− mice; chronic NaBr 250 mg/kg once daily
Protocol: as §1, §4, §3

Fmr1^−/− mice [8] = assay: Direct social interaction test; assay type: in vivo, mouse
Protocol: as §1
(§5) Direct social interaction test. On testing day, a pair of unfamiliar mice (not cage mates, age-, sex- and treatment-matched) was introduced in each arena for 10 min (15 lx). Each arena received a black plastic floor (transparent to infrared). […] The mean duration of nose and paw contacts was calculated from previous data (61-63).
as §3

Shank3^Δex13-16−/− mice [9] = assay: Direct social interaction test; assay type: in vivo, mouse; details: Shank3Δex13-16−/− mice
Protocol: as §1, §5, §3

[10] = Oprm1+/+ mice, chronic NaBr 10-500 mg/kg
[11] = Oprm1−/− mice, chronic NaBr 10-500 mg/kg or bumetanide 0.5 and 2 mg/kg
[12] = chronic NaBr 250 mg/kg once daily
[13] = one week after interruption of NaBr 250 mg/kg

[Br-].[Na+] [NaBr, sodium bromide]
perseverative same arm returns (Oprm1^−/− mice [1]): suppressed perseverative same arm returns from the dose of 70 mg/kg
perseverative same arm returns (Oprm1^−/− mice [1]; listed as bromide): decreased the number of perseverative same arm returns in Oprm1 null mice to wild-type levels since the dose of 30 mg/kg
autistic-like deficits and motor stereotypies (Oprm1^−/− mice [2]): relieved autistic-like deficits and motor stereotypies in Oprm1^−/− mice in a similar way as it did after intra-peritoneal injection
number of grooming episodes in wild-type controls (Oprm1^−/− mice [3]; [10]): dose-dependently increased the number of grooming episodes; also recorded: at 500 mg/kg increased the frequency of grooming episodes and head shakes
number of head shakes in wild-type controls (Oprm1^−/− mice [3]; [10]): dose-dependently increased; also recorded: at 500 mg/kg increased the frequency of grooming episodes and head shakes
number of head shakes (Oprm1^−/− mice [3]; [11]): decreased under NaBr treatment since the lowest dose; also recorded: less consistently reduced the number of head shakes (doses over 125 mg/kg)
stereotypic circling episodes (Oprm1^−/− mice [3]; [11]): decreased under NaBr treatment since the lowest dose
number of rearing episodes (Oprm1^−/− mice [3]; both mouse lines (Oprm1−/− and Oprm1+/+), chronic NaBr or bumetanide): increased the number of rearing episodes in a dose-dependent manner
perseverative same arm returns (Fmr1^−/− mice [4]): suppressed under chronic bromide
perseverative same arm returns (Shank3^Δex13-16−/− mice [5]): suppressed under chronic bromide
duration of nose contacts with the mouse versus the object (Fmr1^−/− mice [6]): making longer nose contacts with the mouse versus the object
number of nose contacts with either stimulus (Fmr1^−/− mice [6]): without modifying the number of nose contacts
preference ratio (Fmr1^−/− mice [6]): normalized their preference ratio
time exploring the mouse versus the object (Fmr1^−/− mice [6]): restored a preference for spending more time exploring the mouse
duration of nose contacts with the mouse versus the toy (Shank3^Δex13-16−/− mice [7]): made longer nose contacts with their congener versus the toy
number of nose contacts (Shank3^Δex13-16−/− mice [7]): no change in the number of nose contacts
preference ratio (Shank3^Δex13-16−/− mice [7]): increased preference ratio
time in contact with the mouse versus the toy (Shank3^Δex13-16−/− mice [7]): spent more time in contact with the mouse
duration of nose contacts (Fmr1^−/− mice [8]; [12]): restored the duration of nose
duration of paw contacts (Fmr1^−/− mice [8]; [12]): restored
grooming after social contact (Fmr1^−/− mice [8]; [12]): suppressed grooming after social contact
number of following episodes (Fmr1^−/− mice [8]; [12]): normalized the number of following episodes
duration of paw contacts (Fmr1^−/− mice [8]; [13]): significant beneficial effects were still detected
number of grooming episodes after a social contact (Fmr1^−/− mice [8]; [13]): significant beneficial effects were still detected
duration of nose contacts (Shank3^Δex13-16−/− mice [9]; [12]): restored the duration of nose
duration of paw contacts (Shank3^Δex13-16−/− mice [9]; [12]): restored
grooming after social contact (Shank3^Δex13-16−/− mice [9]; [12]): suppressed grooming after social contact
number of following episodes (Shank3^Δex13-16−/− mice [9]; [12]): normalized the number of following episodes
duration of paw contacts (Shank3^Δex13-16−/− mice [9]; [13]): no effect of previous bromide treatment was longer detected
grooming after social contact (Shank3^Δex13-16−/− mice [9]; [13]): remained efficiently suppressed

Reference: US20240366539A1, “METHODS FOR TREATING AUTISM SPECTRUM DISORDERS” (INSTITUT NATIONAL DE LA SANTÉ ET DE LA RECHERCHE MÉDICALE, priority 2021, published 2024)
